{"source": "patent US9206200B2", "about": "“N-linked lactam M1 receptor positive allosteric mogulators” (Merck Sharp & Dohme Corp., priority 2011, dated 2015)", "biological_target": "T1, acetylcholine muscarinic M1 receptor (Homo sapiens, UniProt P11229)", "T1 construct": "expressed in transfected cells; host or cells: CHOnfat cells (CHO cells with an NFAT reporter) expressing hM1, kept under Geneticin selection", "T1 sequence (P11229 1-460)": "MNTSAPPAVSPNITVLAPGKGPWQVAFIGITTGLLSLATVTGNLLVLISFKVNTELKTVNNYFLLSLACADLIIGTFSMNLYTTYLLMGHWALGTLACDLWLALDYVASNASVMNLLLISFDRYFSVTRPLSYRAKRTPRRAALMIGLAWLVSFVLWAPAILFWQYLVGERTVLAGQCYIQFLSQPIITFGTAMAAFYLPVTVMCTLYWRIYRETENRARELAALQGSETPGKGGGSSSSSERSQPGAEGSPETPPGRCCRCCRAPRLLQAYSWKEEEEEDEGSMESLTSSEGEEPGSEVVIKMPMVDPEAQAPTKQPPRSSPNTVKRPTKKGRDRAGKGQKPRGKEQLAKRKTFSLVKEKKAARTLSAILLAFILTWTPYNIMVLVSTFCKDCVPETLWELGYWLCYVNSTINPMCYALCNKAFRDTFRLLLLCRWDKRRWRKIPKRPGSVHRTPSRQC", "experiment": "muscarinic FLIPR assay: intracellular calcium in CHOnfat/hM1 cells, potentiation of EC20 acetylcholine", "format": "cell-based", "conditions": "Table 1; CHOnfat/hM1 cells, FLIPR, EC20 acetylcholine (3 nM final); read-out: M1 Pot.", "method": "The assay studies the effect of one or several concentrations of test compounds on basal or acetylcholine-stimulated Ca^2+ levels using FLIPR.\nCompounds are prepared and subjected to a preincubation period of […]. Thereafter, a single EC20 concentration of acetylcholine is added to each well (3 nM final). The intracellular Ca^2+ level of each sample is measured and compared to an acetylcholine control to determine any modulatory activity.\nCells: CHOnfat/hM1, hM2, hM3 or hM4 cells are plated 24 hr before the assay at a density of 18,000 cells/well (100 μL) in a 384 well plate. CHOnfat/hM1 and CHOnfat/hM3 Growth Medium: 90% DMEM (Hi Glucose); 10% HI FBS; 2 mM L-glutamine; 0.1 mM NEAA; Pen-Strep; and 1 mg/ml Geneticin, are added. For M2Gqi5CHOnfat and M4Gqi5CHOnfat cells, an additional 600 ug/ml hygromycin is added.\nEquipment: 384 well plate, 120 μl, addition plate; 96-well Whatman 2 ml Uniplate Incubator, 37° C., 5% CO2; Skatron EMBLA-384 Plate Washer; Multimek Pipetting System; Genesis Freedom 200 System; Mosquito System; Temo Nanolitre Pipetting System; and FLIPR^384 Fluorometric Imaging Plate Reader System are used.\nBuffers. Assay Buffer: Hanks Balanced Salt Solution, with 20 mM Hepes, 2.5 mM Probenecid (Sigma P-8761) first dissolved in 1 N NaOH, 1% Bovine Serum Albumin (Sigma A-9647). Dye Loading Buffer: Assay Buffer plus 1% Fetal Bovine Serum and Fluo-4AM/Pluronic Acid Mixture. 2 mM Fluo-4AM ester stock in DMSO (Molecular Probes F-14202) Concentration of 2 μM in buffer for a final concentration of 1 μM in Assay. 20% Pluronic Acid Solution stock, with concentration of 0.04% in Buffer, 0.02% in Assay.\n65 μL of 2 mM Fluo-4AM are mixed with 130 μL of 20% Pluronic Acid. The resulting solution and 650 μL FBS is added to the assay buffer for a total volume of 65 mL. Positive Controls: 4-Br-A23187: 10 mM in DMSO; final concentration 10 μM. Acetylcholine: 10 mM in water, working stock at both 20 μM and 30 μM in assay buffer, final concentration of 10 μM. This is used to check the maximum stimulation of the CHOK1/hM1 cells. 20 μM (2×) acetylcholine is added in the preincubation part of the assay, and the 30 μM (3×) stock is added in the second part. (EC20)Acetylcholine: 10 mM in water, working stock of 9 nM (3×), and final concentration in assay is 3 nM. This is used after the preincubation with test compounds. Addition of the EC20 Acetylcholine to each well with a test compound will ascertain any modulator activity. 24 wells contain 3 nM Acetylcholine alone as a control.\nDetermining Activity of Putative Compounds:\nScreening Plate Compounds are titrated in 96-well plates (columns 2-11), 100% DMSO, started at a concentration of 15 mM (150× stock concentration), and 3-fold serial dilutions using Genesis Freedom200 System. Four 96-well plates are combined into a 384-well plate using Mosquito Nanolitre Pipetting System by transferring 1 μl of serial diluted compounds to each well, and 1 mM acetylcholine (100× stock concentration) were added as a control. Using Temo, 49 μl assay buffer is added to each well of the 384-well plate right before assay.\nIn a 96-well Whatman 2 ml Uniplate, 9 nM Acetylcholine (3×) is pipetted into wells corresponding to the screening compounds, and into control wells. The 30 μM acetylcholine control (3×) is added into control wells, and the 3× agonist plate is transferred into a 384 well plate.\nCells are washed three times with 100 μL of buffer, leaving […] of buffer in each well. Using Multimek, 30 μL of Dye Loading Buffer is added into each well and incubated at 37° C., 5% CO2 for up to one hr.\nAfter 60 min, the cells are washed three times with 100 μL of buffer, leaving 30 μL of buffer in each well. The cell plate, screening plate, and agonist addition plates are placed on the platform in the FLIPR and the door closed. A signal test to check background fluorescence and basal fluorescence signal is performed. Laser intensity is adjusted if necessary."}
{"compound": "O=C1c2cc(CN3CC[C@H](F)C3)c3ccccc3c2CN1C1CCCCC1O", "note": "(stereo partly drawn) [Example 32, 5-{[(3S)-3-fluoropyrrolidin-1-yl]methyl}-2-(2-hydroxycyclohexyl) 1,2-dihydro-3H-benzo[e]isoindol-3-one]", "values": [{"measurement": "EC50", "value": 1800, "unit": "nM"}]}
{"compound": "O=C1c2cc(CN3CCC(F)(F)C3)c3ccccc3c2CN1C1CCCCC1O", "note": "(stereo not shown) [Example 33, 5-[(3,3-difluoropyrrolidin-1-yl)methyl]-2-(2-hydroxycyclohexyl)-1,2-dihydro-3H-benzo[e]isoindol-3-one]", "values": [{"measurement": "EC50", "value": 240, "unit": "nM"}]}
{"compound": "O=C1c2cc(CN3CCN(CC(F)(F)F)CC3)c3ccccc3c2CN1C1CCCCC1O", "note": "(stereo not shown) [Example 34, 2-(2-hydroxycyclohexyl)-5-{[4-(2,2,2-trifluoroethyl)piperazin-1-yl]methyl}-1,2-dihydro-3H-benzo[e]isoindol-3-one]", "values": [{"measurement": "EC50", "value": 1900, "unit": "nM"}]}
{"compound": "CC1(O)CCN(Cc2cc3c(c4ccccc24)CN(C2CCCCC2O)C3=O)CC1", "note": "(stereo not shown) [Example 37, 2-(2-hydroxycyclohexyl)-5-[(4-hydroxy-4-methylpiperidin-1-yl)methyl]-1,2-dihydro-3H-benzo[e]isoindol-3-one]", "values": [{"measurement": "EC50", "value": "> 1100", "unit": "nM"}]}
{"compound": "CC1(C)CCN(Cc2cc3c(c4ccccc24)CN(C2CCCCC2O)C3=O)CC1", "note": "(stereo not shown) [Example 38, 5-[(4,4-dimethylpiperidin-1-yl)methyl]-2-(2-hydroxycyclohexyl)-1,2-dihydro-3H-benzo[e]isoindol-3-one]", "values": [{"measurement": "EC50", "value": 670, "unit": "nM"}]}
{"compound": "O=C1c2cc(CN3CCC(C4CC4)CC3)c3ccccc3c2CN1C1CCCCC1O", "note": "(stereo not shown) [Example 39, 5-[(4-cyclopropylpiperidin-1-yl)methyl]-2-(2-hydroxycyclohexyl)-1,2-dihydro-3H-benzo[e]isoindol-3-one]", "values": [{"measurement": "EC50", "value": 5300, "unit": "nM"}]}
{"compound": "O=C1c2cc(CN3CCC4(CC3)COc3ccccc34)c3ccccc3c2CN1C1CCCCC1O", "note": "(stereo not shown) [Example 40, 2-(2-hydroxycyclohexyl)-5-(1′H-spiro[1-benzofuran-3,4′-piperidin]-1′-ylmethyl)-1,2-dihydro-3H-benzo[e]isoindol-3-one]", "values": [{"measurement": "EC50", "value": 720, "unit": "nM"}]}
{"compound": "O=C1c2cc(CN3CCC(c4ccccc4)CC3)c3ccccc3c2CN1C1CCCCC1O", "note": "(stereo not shown) [Example 41, 2-(2-hydroxycyclohexyl)-5-[(4-phenylpiperidin-1-yl)methyl]-1,2-dihydro-3H-benzo[e]isoindol-3-one]", "values": [{"measurement": "EC50", "value": 1400, "unit": "nM"}]}
{"compound": "O=C1c2cc(CN3CCC(c4ccncc4)CC3)c3ccccc3c2CN1C1CCCCC1O", "note": "(stereo not shown) [Example 42, 2-(2-hydroxycyclohexyl)-5-[(4-(4-pyridinyl)piperidin-1-yl)methyl]-1,2-dihydro-3H-benzo[e]isoindol-3-one]", "values": [{"measurement": "EC50", "value": 240, "unit": "nM"}]}
{"compound": "O=C1c2cc(CN3CCC(O)(c4ccncc4)CC3)c3ccccc3c2CN1C1CCCCC1O", "note": "(stereo not shown) [Example 43, 2-(2-hydroxycyclohexyl)-5-[(4-hydroxy-4-pyridin-4-ylpiperidin-1-yl)methyl]-1,2-dihydro-3H-benzo[e]isoindol-3-one]", "values": [{"measurement": "EC50", "value": 830, "unit": "nM"}]}
{"compound": "N#CC1(c2ccccn2)CCN(Cc2cc3c(c4ccccc24)CN([C@@H]2CCCC[C@H]2O)C3=O)CC1", "note": "[Example 46, 1-({2-[(1R,2R)-2-hydroxycyclohexyl]-3-oxo-2,3-dihydro-1H-benzo[e]isoindol-5-yl}methyl)-4-pyridin-2-ylpiperidine-4-carbonitrile]", "values": [{"measurement": "EC50", "value": 539, "unit": "nM"}]}
{"compound": "N#CC1(c2ccccn2)CCN(Cc2cc3c(c4ccccc24)CN([C@@H]2CCCC[C@@H]2O)C3=O)CC1", "note": "[Example 47, 1-({2-[(1R,2S)-2-hydroxycyclohexyl]-3-oxo-2,3-dihydro-1H-benzo[e]isoindol-5-yl}methyl)-4-pyridin-2-ylpiperidine-4-carbonitrile]", "values": [{"measurement": "EC50", "value": 147, "unit": "nM"}]}
{"compound": "N#CC1(c2cccc(Cl)n2)CCN(Cc2cc3c(c4ccccc24)CN([C@H]2CCCC[C@@H]2O)C3=O)CC1", "note": "[Example 48]", "values": [{"measurement": "EC50", "value": 53, "unit": "nM"}]}
{"compound": "C=Cc1cccc(C2(C#N)CCN(Cc3cc4c(c5ccccc35)CN([C@H]3CCCC[C@@H]3O)C4=O)CC2)n1", "note": "[Example 49, 4-(6-ethenylpyridin-2-yl)-1-({2-[(1S,2S)-2-hydroxycyclohexyl]-3-oxo-2,3-dihydro-1H-benzo[e]isoindol-5-yl}methyl)piperidine-4-carbonitrile]", "values": [{"measurement": "EC50", "value": 114, "unit": "nM"}]}
{"compound": "N#CC1(c2cnccn2)CCN(Cc2cc3c(c4ccccc24)CN([C@H]2CCCC[C@@H]2O)C3=O)CC1", "note": "[Example 50, 1-({2-[(1S,2S)-2-hydroxycyclohexyl]-3-oxo-2,3-dihydro-1H-benzo[e]isoindol-5-yl}methyl)-4-(pyrazin-2-yl)piperidine-4-carbonitrile]", "values": [{"measurement": "EC50", "value": 31, "unit": "nM"}]}
{"compound": "N#CC1(c2ccncn2)CCN(Cc2cc3c(c4ccccc24)CN([C@H]2CCCC[C@@H]2O)C3=O)CC1", "note": "[Example 51, 1-({2-[(1S,2S)-2-hydroxycyclohexyl]-3-oxo-2,3-dihydro-1H-benzo[e]isoindol-5-yl}methyl)-4-(pyrimidin-4-yl)piperidine-4-carbonitrile]", "values": [{"measurement": "EC50", "value": 17, "unit": "nM"}]}
{"compound": "N#CC1(c2cccnn2)CCN(Cc2cc3c(c4ccccc24)CN([C@H]2CCCC[C@@H]2O)C3=O)CC1", "note": "[Example 52, 1-({2-[(1S,2S)-2-hydroxycyclohexyl]-3-oxo-2,3-dihydro-1H-benzo[e]isoindol-5-yl}methyl)-4-(pyridazin-3-yl)piperidine-4-carbonitrile]", "values": [{"measurement": "EC50", "value": 27, "unit": "nM"}]}
{"compound": "O=C1c2cc(CN3CCC(F)(c4ccccc4)CC3)c3ccccc3c2CN1[C@@H]1CCCC[C@H]1O", "note": "[Example 53, 5-[(4-fluoro-4-phenylpiperidin-1-yl)methyl]-2-[(1R,2R)-2-hydroxycyclohexyl]-1,2-dihydro-3H-benzo[e]isoindol-3-one]", "values": [{"measurement": "EC50", "value": 248, "unit": "nM"}]}
{"compound": "N#CC1(c2ccccn2)CCN(Cc2cc3c(c4ccccc24)CN(C2CCOCC2)C3=O)CC1", "note": "[Example 54, 1-{[3-oxo-2-(tetrahydro-2H-pyran-4-yl)-2,3-dihydro-1H-benzo[e]isoindol-5-yl]methyl}-4-pyridin-2-ylpiperidine-4-carbonitrile]", "values": [{"measurement": "EC50", "value": 279, "unit": "nM"}]}
{"compound": "N#CC1(c2ccccn2)CCN(Cc2cc3c(c4ccccc24)CN(C2CCCOC2)C3=O)CC1", "note": "(stereo not shown) [Example 55, 1-{[3-oxo-2-(tetrahydro-2H-pyran-3-yl)-2,3-dihydro-1H-benzo[e]isoindol-5-yl]methyl}-4-pyridin-2-ylpiperidine-4-carbonitrile]", "values": [{"measurement": "EC50", "value": 1500, "unit": "nM"}]}
{"compound": "N#CC1(c2ccccc2)CCN(Cc2cc3c(c4ccccc24)CN([C@H]2CCCC[C@@H]2O)C3=O)CC1", "note": "[Example 56, 1-({2-[(1S,2S)-2-hydroxycyclohexyl]-3-oxo-2,3-dihydro-1H-benzo[e]isoindol-5-yl}methyl)-4-phenylpiperidine-4-carbonitrile]", "values": [{"measurement": "EC50", "value": 83, "unit": "nM"}]}
{"compound": "N#CC1(c2cccnc2)CCN(Cc2cc3c(c4ccccc24)CN([C@H]2CCCC[C@@H]2O)C3=O)CC1", "note": "[Example 57]", "values": [{"measurement": "EC50", "value": 22, "unit": "nM"}]}
